Like-named read-outs stand apart in the source and are kept apart here.
Assays:
[1] = target: T1, full-length human PARP1 (Homo sapiens, UniProt P09874); test: PARP1 enzymatic assay (homogeneous NAD+ consumption assay); assay type: biochemical; conditions: 5 nM PARP1, 500 nM NAD+, 30 min
T1 construct: Briefly, full‐length human PARP1 was produced in E. coli Rosetta2 (DE3); made in house; host or cells: E. coli Rosetta2 (DE3)
Experimental: PARP1 was expressed and purified as described in the literature. Briefly, full‐length human PARP1 was produced in E. coli Rosetta2 (DE3). The cells were harvested by centrifugation, and re‐suspended in lysis buffer containing 50 mM HEPES pH 8.0, 500 mM NaCl, 10 % glycerol, 0.5 mM TCEP and 10 mM imidazole. The sample was lysed using sonication in the presence of DNAse1 and 3‐aminobenzamide, centrifuged at 18,000 rpm for 1 h and the supernatant was filtered. The clarified sample was loaded to a HiTrap^TM IMAC column (Cytiva), washed with lysis buffer, then with a similar buffer containing 1 M NaCl, and finally with lysis buffer containing 25 mM imidazole before eluting the protein with 500 mM imidazole. The eluted sample was then diluted to reduce NaCl concentration to 250 mM, and loaded to a HiTrap Heparin column (Cytiva). The column was washed with 50 mM HEPES, 250 mM NaCl, 10 % glycerol, 1 mM EDTA, 0.1 mM TCEP, pH 7.5. and the sample was eluted using a gradient with a similar buffer containing 1 M NaCl. Fractions were analyzed by SDS‐PAGE and those containing protein were pooled and concentrated before aliquoting and stored at −70 °C.
IC50 was determined using homogeneous NAD^+ consumption assay. 5 nM PARP1 was incubated with each compound in log half dilution series for 30 min in 50 mM Tris pH 8.0, 5 mM MgCl2, 0.2 mg mL^−1 BSA, 10 μg mL^−1 activated DNA and 500 nM NAD^+. The reactions were performed in quadruplicates and resulting IC50 curves were fitted to a sigmoidal dose‐response curve (four variables) using GraphPad Prism version 8.02. Each experiment was repeated three times from which pIC50±SEM was calculated. Compounds with IC50 above 1 μM were measured only once.

[2] = PAMPA BBB permeability (brain polar lipid coated filter); assay type: in vitro ADME; conditions: for MR (membrane retention): pH 7.4, 5 h; for Papp at 5 h, 500 μM: PAMPA
Experimental: The donor solution (150 μL) was then added to each well of the filter plate. 300 μL of the solution (50 % DMSO in phosphate buffer) were added to each well of the acceptor plate. The sandwich plate was assembled and incubated for 5 h at room temperature. After the incubation time, plates were separated, samples were taken from both the donor and acceptor wells, and the compound concentration was measured by UV/LC–MS. All compounds were tested in three independent experiments. […] (3) Papp=VD×VA/VD+VAAt-ln(1-r)
Equation (3): Experimental apparent permeability (Papp) calculation as described in the literature modified to yield values in cm s^−1 [67, 68]. […] Drug concentration is estimated by using the peak area integration. (4) %MR=[r-D+A]/Eq×100
Equation (4): Membrane retention calculation: r is the ratio between drug concentration in the acceptor and equilibrium solutions. D, A, and Eq represent the drug concentration in the donor, acceptor, and equilibrium solutions, respectively.

[3] = pH 7.4, pH 7.4, donor 500 μM, 5 h, room temperature, read-out: PAMPA BBB Papp

T1 sequence (P09874 whole entry): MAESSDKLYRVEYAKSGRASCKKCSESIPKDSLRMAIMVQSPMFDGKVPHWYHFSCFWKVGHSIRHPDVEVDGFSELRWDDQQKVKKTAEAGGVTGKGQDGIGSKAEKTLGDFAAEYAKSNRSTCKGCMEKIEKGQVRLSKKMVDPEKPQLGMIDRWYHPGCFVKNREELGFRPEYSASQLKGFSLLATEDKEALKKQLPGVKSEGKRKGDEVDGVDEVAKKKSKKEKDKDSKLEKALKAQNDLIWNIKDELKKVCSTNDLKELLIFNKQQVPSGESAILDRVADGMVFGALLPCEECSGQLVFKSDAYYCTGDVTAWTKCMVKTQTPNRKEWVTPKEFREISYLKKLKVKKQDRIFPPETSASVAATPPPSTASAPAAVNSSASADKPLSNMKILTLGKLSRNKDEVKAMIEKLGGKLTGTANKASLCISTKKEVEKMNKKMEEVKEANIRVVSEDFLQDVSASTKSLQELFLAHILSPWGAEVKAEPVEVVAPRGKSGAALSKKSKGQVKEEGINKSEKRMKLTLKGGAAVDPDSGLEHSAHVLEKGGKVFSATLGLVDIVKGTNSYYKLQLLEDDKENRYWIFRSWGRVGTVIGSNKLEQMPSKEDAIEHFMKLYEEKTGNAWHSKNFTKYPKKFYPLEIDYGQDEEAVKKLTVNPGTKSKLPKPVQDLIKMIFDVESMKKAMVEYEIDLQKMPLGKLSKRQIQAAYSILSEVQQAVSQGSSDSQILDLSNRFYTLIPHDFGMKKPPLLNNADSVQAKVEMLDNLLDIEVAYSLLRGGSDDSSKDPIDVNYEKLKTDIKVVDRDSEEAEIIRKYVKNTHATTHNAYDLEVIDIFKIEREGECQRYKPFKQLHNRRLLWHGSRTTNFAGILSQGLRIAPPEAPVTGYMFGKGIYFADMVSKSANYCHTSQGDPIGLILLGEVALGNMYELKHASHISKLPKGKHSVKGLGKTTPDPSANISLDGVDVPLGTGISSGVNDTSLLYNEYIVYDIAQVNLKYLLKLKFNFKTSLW

| Structure (SMILES) | IC50 (result in words) [1] | MR (membrane retention) ([2]; PAMPA BBB) [%] | IC50 ([1]; averaged on three replicas) [nM] | further results |
| --- | --- | --- | --- | --- |
| Cc1cc(CN)ccc1-c1cc(F)c2c(c1)C(=O)NCC2.Cl [Row528 (I), 7‐[4‐(Aminomethyl)‐2‐methylphenyl]‐5‐fluoro‐1,2,3,4‐tetrahydroisoquinolin‐1‐one hydrochloride] | No inhibition |  |  |  |
| O=C(c1cc(Cc2n[nH]c(=O)c3ccccc23)ccc1F)N1CCN(C(=O)C2CC2)CC1 [Olaparib, reference compound] |  | 3.0 |  |  |
| C#CCCNCc1ccc(-c2cc(F)c3c(c2)C(=O)NCC3)c(C)c1 [Row528, 7‐(4‐{[(But‐3‐yn‐1‐yl)amino]methyl}‐2‐methylphenyl)‐5‐fluoro‐1,2,3,4‐tetrahydroisoquinolin‐1‐one] | No inhibition |  |  |  |
| Cc1ccc(Cn2cc(CCN)c3c(C#N)cccc32)cc1 [Row847, 3‐(2‐Aminoethyl)‐1‐[(4‐methylphenyl)methyl]‐1H‐indole‐4‐carbonitrile] |  |  |  | IC50 ([1]; IC50 above 1 μM measured once): 16000 nM |
| CCCC(O)c1ccc(-c2n[nH]c(=O)c3ccccc23)cc1 (stereo not drawn) [Row86, 4‐[4‐(1‐Hydroxybutyl)phenyl]‐1,2‐dihydrophthalazin‐1‐one] | sub‐micromolar |  | 755 |  |
| Cc1cc2cc(C(=O)OCc3ccc(C(=O)N4CCOCC4)c(C)c3)ccc2c(=O)[nH]1 [Row514, [3‐Methyl‐4‐(morpholine‐4‐carbonyl)phenyl]methyl 3‐methyl‐1‐oxo‐1,2‐dihydroisoquinoline‐6‐carboxylate] |  | 0.8 |  | IC50 ([1]; IC50 above 1 μM measured once): 19000 nM; BBB permeability relative to reference Olaparib ([2]; PAMPA BBB, ratio of Papp): approximately 20 times; Papp at 5 h, 500 μM [2, 3]: 0.325 ×10⁻⁶ cm/s |
| O=c1[nH]nc(-c2ccc(Br)cc2)c2ccccc12 [Row86 (I), 4‐(4‐bromophenyl)‐2H‐phthalazin‐1‐one] | sub‐micromolar |  | 395 |  |
| CC1CC1C(=O)c1ccc(-c2n[nH]c(=O)c3ccccc23)cc1 (stereo not drawn) [Row745(2), 4‐[4‐(2‐Methylcyclopropanecarbonyl)phenyl]‐1,2‐dihydrophthalazin‐1‐one] | sub‐micromolar | 3.6 | 908 | Papp at 5 h, 500 μM ([2]; pH 7.4, PAMPA BBB, read-out: BBB permeability (diffusion)): 2.1 ×10⁻⁶ cm/s; Papp at 5 h, 500 μM [2, 3]: 2.1 ×10⁻⁶ cm/s |
| Cc1cc(COC(=O)c2c(C)ccc3[nH]ncc23)ccc1C(=O)N1CCOCC1 [Row26, [3‐Methyl‐4‐(morpholine‐4‐carbonyl)phenyl]methyl 5‐methyl‐1H‐indazole‐4‐carboxylate] | No inhibition |  |  |  |

From paper PMC11475289, “Synthetically accessible de novo design using reaction vectors: Application to PARP1 inhibitors” (Molecular Informatics, 2024)
